Literature values as cited in patent US20230355508A1, “TREATING NEUROPATHIC PAIN IN SPINAL CORD INJURED INDIVIDUALS” (CNS Biosciences, Inc., priority 2016, published 2023).
Like-named read-outs stand apart in the source and are kept apart here.

System: neuropathic pain following spinal cord injury
Conditions: Finnerup et al., Scandinavian Journal of Pain 2009; for relief of neuropathic pain following spinal cord injury: patients with neuropathic pain following SCI

CC[C@@H](C(N)=O)N1CCCC1=O (single isomer, unassigned) [levetiracetam]
relief of spasm severity following spinal cord injury (patients with SCI): does not relieve
relief of neuropathic pain following spinal cord injury: does not relieve
relief of neuropathic pain following spinal cord injury (listed as Levetiracetam): no analgesic or other benefit
